# In ChEMBL document CHEMBL5576121, “Halogen Bonding Hot Spots as a Constraint in Virtual Screening: A Case Study of 5-HT7R” (J Med Chem, 2024):
# Target: 5-hydroxytryptamine receptor 7 (Homo sapiens, UniProt P34969)
# Test: Displacement of [3H]-5-CT from human 5-HT7b receptor expressed in HEK293 cell membranes incubated for 1 hr by Microbeta Topcount instrument based analysis
# Chain of 5-hydroxytryptamine receptor 7 (P34969 whole entry): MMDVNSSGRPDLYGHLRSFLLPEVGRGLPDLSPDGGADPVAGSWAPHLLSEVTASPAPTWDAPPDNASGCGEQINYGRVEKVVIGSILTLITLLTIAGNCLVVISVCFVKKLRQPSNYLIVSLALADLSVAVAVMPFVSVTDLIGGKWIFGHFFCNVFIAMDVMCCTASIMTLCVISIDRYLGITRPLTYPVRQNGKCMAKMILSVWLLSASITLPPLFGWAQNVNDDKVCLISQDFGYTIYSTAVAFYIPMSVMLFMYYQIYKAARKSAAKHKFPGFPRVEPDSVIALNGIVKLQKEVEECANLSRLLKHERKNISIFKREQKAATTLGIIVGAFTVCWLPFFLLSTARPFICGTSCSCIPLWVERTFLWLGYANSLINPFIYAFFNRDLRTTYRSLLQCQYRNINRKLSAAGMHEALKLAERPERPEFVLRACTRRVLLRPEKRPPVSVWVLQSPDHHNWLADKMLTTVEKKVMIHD
row,Compound,Ki [µM]
1,OC(COc1ccc2c(c1)CCC2)CN1CCN(c2cccc(Cl)c2)CC1 (stereo not drawn),0.285
2,CCCc1ccc(OCC(O)CN2CCN(c3ccccc3)CC2)cc1 (stereo not drawn),1.09
3,CC(=O)c1ccc(OCC(O)CN2CCN(c3ccc(Cl)cc3)CC2)cc1 (stereo not drawn),7.13
4,CC(=O)c1ccc(OCC(O)CN2CCN(c3ccccc3Cl)CC2)cc1 (stereo not drawn),4.67
5,OC(COc1ccc2c(c1)CCC2)CN1CCN(c2ccc(Cl)cc2)CC1 (stereo not drawn),1.52
6,CC(=O)c1ccc(OCC(O)CN2CCN(c3ccccc3)CC2)cc1 (stereo not drawn),1.97

# Results, then the molecule that gave them:
row,Ki [µM],Compound
1,7.13,CCC(=O)N1c2ccccc2CC1C(=O)NCCCN1CCN(c2ccccc2)CC1 (stereo not drawn)
2,0.687,CCC(=O)N1c2ccccc2CC1C(=O)NCCCN1CCN(c2cccc(Cl)c2)CC1 (stereo not drawn)
3,0.587,OC(COc1ccc2c(c1)CCC2)CN1CCN(c2ccccc2)CC1 (stereo not drawn)
4,0.36,CCCc1ccc(OCC(O)CN2CCN(c3cccc(Cl)c3)CC2)cc1 (stereo not drawn)
5,2.3,COc1ccc(OC)c(COCC(O)CN2CCN(c3ccccc3)CC2)c1 (stereo not drawn)
6,0.065,COc1ccc(OC)c(COCC(O)CN2CCN(c3cccc(Cl)c3)CC2)c1 (stereo not drawn)
7,0.471,CC(=O)c1ccc(OCC(O)CN2CCN(c3cccc(Cl)c3)CC2)cc1 (stereo not drawn)
